Assay results: paper PMC9494209 (RSC Advances, 2022)

Columns and labels:
[1] = target: SARS-CoV-2 M^pro (Severe acute respiratory syndrome coronavirus 2, UniProt P0DTD1); assay: biochemical; type: biochemical; settings: ± SE, triplicate readings; for IC50: IC50 against SARS-CoV-2 M^pro
[2] = test system: SARS-CoV-2; type: cell-based; settings: for SI (selectivity index): IC50 Vero cell cytotoxicity divided by EC50 of the antiviral assay; for EC50: read-out: Antiviral assay (qPCR) EC50, Vero E6 cells, five concentrations, ± SE

Structure (SMILES) | IC50 [1] | SI (selectivity index) [2] | EC50 [2] | IC50 against SARS-CoV-2 M^pro [1] | Antiviral assay (qPCR) Inhibition % ([2]; 10 µM)
O=C(Nc1ccccc1F)c1cc2c(=O)n3ccccc3nc2n1Cc1ccccc1 [Compound 21, 1-Benzyl-N-(2-fluorophenyl)-4-oxo-1,4-dihydropyrido[1,2-a]pyrrolo[2,3-d]pyrimidine-2-carboxamide] | 25.4 ± 2.4 µM | 3544 |  |  | 
Cn1c(C(=O)Nc2ccc(Cl)cc2)cc2c(=O)n3ccccc3nc21 [Compound 22, N-(4-Chlorophenyl)-1-methyl-4-oxo-1,4-dihydropyrido[1,2-a]pyrrolo[2,3-d]pyrimidine-2-carboxamide] | 236 ± 4.29 µM | 1766 | 0.109 ± 0.0111 µM |  | 
CCc1ccc(NC(=O)c2cc3c(=O)n4ccccc4nc3n2C)cc1 [Compound 24, N-(4-Ethylphenyl)-1-methyl-4-oxo-1,4-dihydropyrido[1,2-a]pyrrolo[2,3-d]pyrimidine-2-carboxamide] | 82.2 ± 15 µM | 283.3 |  |  | 
CC(=O)c1cccc(NC(=O)c2cc3c(=O)n4ccccc4nc3n2C)c1 [Compound 25, N-(3-Acetylphenyl)-1-methyl-4-oxo-1,4-dihydropyrido[1,2-a]pyrrolo[2,3-d]pyrimidine-2-carboxamide] | 5.42 µM | 1135 |  | low micromolar concentrations | 
Cc1cccn2c(=O)c3cc(C(=O)Nc4ccc(N(C)C)cc4)n(C)c3nc12 [Compound 26, N-(4-(Dimethylamino)phenyl)-1,9-dimethyl-4-oxo-1,4-dihydropyrido[1,2-a]pyrrolo[2,3-d]-pyrimidine-2-carboxamide] | 407.5 ± 3.44 µM | 2323 |  |  | 94.05%
Cc1ccc(NC(=O)c2cc3c(=O)n4cccc(C)c4nc3n2C)cc1Cl [Compound 27, N-(3-Chloro-4-methylphenyl)-1,9-dimethyl-4-oxo-1,4-dihydropyrido[1,2-a]pyrrolo[2,3-d]-pyrimidine-2-carboxamide] | 165 ± 16.7 µM | 622.2 |  |  | 
Cc1cc(NC(=O)c2cc3c(=O)n4cccc(C)c4nc3n2C)ccc1Br [Compound 28, N-(4-Bromo-3-methylphenyl)-1,9-dimethyl-4-oxo-1,4-dihydropyrido[1,2-a]pyrrolo[2,3-d]-pyrimidine-2-carboxamide] | 46 ± 8.62 µM | 1278 |  |  | 
Cn1c(C(=O)Nc2ccc3c(c2)OCCO3)cc2c(=O)n3ccccc3nc21 [Compound 29, N-(2,3-Dihydrobenzo[b][1,4]dioxin-6-yl)-1-methyl-4-oxo-1,4-dihydropyrido[1,2-a]pyrrolo-[2,3-d]pyrimidine-2-carboxamide] | 3.22 ± 2.83 µM | 2909 | 0.0519 ± 0.00512 µM | low micromolar concentrations | 
CCC(CC)COC(=O)[C@H](C)N[P@](=O)(OC[C@H]1O[C@@](C#N)(c2ccc3c(N)ncnn23)[C@H](O)[C@@H]1O)Oc1ccccc1 [Remdesivir, reference compound] |  | 7195 |  |  | 
